Data on 5 compounds can be found in PMC5988308, “Rhodanine derivatives as potent anti-HIV and anti-HSV microbicides” (PLoS ONE, 2018).

Like-named read-outs stand apart in the source and are kept apart here.

The test system of one data set is HSV-2. Put plainly: HSV-2 plaque reduction assay on Vero cells. The class given is cell-based. As to conditions: Vero cells. The procedure: (§1) Clinical isolates of HSV-1 and HSV-2 were kindly provided by Prof. M. Pistello, University of Pisa, Italy. HSV-1 and HSV-2 strains were propagated and titrated by plaque assay on Vero cells. A HSV-2 strain with phenotypic resistance to acyclovir was generated by serial passage in the presence of increasing concentrations of acyclovir, as previously described.
(§2) The effect of the rhodanine derivatives on HSV infection was evaluated by plaque reduction assay. Vero cells were pre-plated 24 h in advance in 24-well plates at a density of […]. Increasing concentrations of compounds were mixed with HSV-2 (MOI 0.001 pfu/cell) or HSV-2 acyclovir resistant (MOI 0.001) or HSV-1 (MOI 0.0005) or and incubated for 1 hour at 37°C. The mixtures were subsequently added to the cells, which were then incubated at 37°C for 2 h. The virus inoculum was then removed and the cells washed and overlaid with a medium containing 1.2% methylcellulose (Sigma). After further incubation at 37°C for 24 h (HSV-2 and HSV-2 R Acy) or 48 h (HSV-1), cells were fixed and stained with 0.1% crystal violet in 20% ethanol and viral plaques counted. The effective concentration producing 50% reduction (EC50) and 90% reduction (EC90) in plaque formation was determined using Prism software by comparing drug-treated with wells treated with medium and solvent. The selectivity index (SI) was calculated by dividing the CC50 by the EC50 value.
(§3) All results are presented as the mean values from three independent experiments. The EC50 values for inhibition curves were calculated by regression analysis using the software GraphPad Prism (GraphPad Software, San Diego, California, U.S.A.) by fitting a variable slope-sigmoidal dose–response curve. Acyclovir was purchased from Sigma Aldrich (Milan, Italy).
(In general: Plaques are areas of infected cells; plaque reduction assays count them against a control.)

Data set [1] can be described thus: Vero cell viability (MTS assay). The format is cell-based. As to conditions: African green monkey. The procedure:
African green monkey fibroblastoid kidney cells (Vero, ATCC CCL-81) were grown as monolayers in Eagle's minimal essential medium (MEM) (Gibco/BRL, Gaithersburg, MD) supplemented with 10% heat inactivated fetal calf serum (FCS) and 1% antibiotic-antimycotic solution (Zell Shield, Minerva Biolabs GmbH, Berlin, Germany).
Cell viability was measured using the MTS [3-(4,5-dimethylthiazol-2-yl)-5-(3-carboxymethoxyphenyl)-2-(4-sulfophenyl)-2H-tetrazolium] assay. Cell cultures were seeded in 96-well plates were incubated with different concentrations of compounds in triplicate under the same experimental conditions described for the antiviral assays. Cell viability was determined using the CellTiter 96 Proliferation Assay Kit (Promega, Madison, WI, USA) according to the manufacturer's instructions. Absorbances were measured using a Microplate Reader (Model 680, BIORAD) at 490 nm. The effect on cell viability at different concentrations of the compound was expressed as a percentage, by comparing absorbances of treated cells with those of cells incubated with culture medium and equal volumes of vehicle.
A general note: Formazan colour is commonly taken as a measure of viable cells.

The test system of the next data set is HSV-1. Put plainly: HSV-1 plaque reduction assay on Vero cells. The class given is cell-based. Conditions: Human alphaherpesvirus 1, Vero cells, read-out: HSV-1 EC50. The procedure:
as §1, §2, §3

Data set [2] relates to HSV-2 acyclovir resistant. Put plainly: HSV-2 acyclovir resistant plaque reduction assay on Vero cells. The class given is cell-based. As to conditions: Human alphaherpesvirus 2, Vero, read-out: HSV-2 acyclovir resistant EC50. The procedure:
as §1
as §2, with “The virus inoculum was then removed and the cells washed and overlaid with a medium containing 1.2% methylcellulose (Sigma).” left out, “The effective concentration producing 50% reduction (EC50) and 90% reduction (EC90) in plaque formation was determined using Prism software by comparing drug-treated with wells treated with medium and solvent.” left out
All results are presented as the mean values from three independent experiments. The EC50 values for inhibition curves were calculated by regression analysis using the software GraphPad Prism (GraphPad Software, San Diego, California, U.S.A.) by fitting a variable slope-sigmoidal dose–response curve. […]

For the next data set, the system named is HSA. Conditions: cited from earlier work.
The subject of data set [3] is HIV-1 AD8 (CCR5-tropic strain). Briefly: Antiviral activity on TZM-bl cells infected with HIV-1 AD8 (CPRG assay). The format is cell-based. Conditions: for alteration of antiviral activity when pre-incubated with serum: HIV-1 laboratory strains. The procedure: (§4) The human TZM-bl indicator cell line (obtained from the NIH AIDS reagents program, cat. Nr 8129 (www.aidsreagent.org) and maintained at 37°C and 5% CO2 in Dulbecco’s modified Eagle’s medium (DMEM) medium containing 10% fetal bovine serum, 50 μg/mL penicillin, and 50 μg/mL streptomycin. The HIV-1 laboratory strains NL(AD8) (NIH AIDS reagents program, cat.nr 11346), NL4.3 (NIH AIDS reagents program, cat. Nr. 114) were titrated as previously reported. Briefly, serial 5-fold dilutions of each virus were made in quadruplicate wells in 96-well culture plates, in a total volume of 100 μL of growth medium (DMEM), for a total of 8 dilution steps. Freshly trypsinized cells (20,000 cells in 100 μL of growth medium containing 75 μg/mL DEAE-dextran) were added to each well, and the plates were incubated at 37°C in a humidified 5% CO2-95% air environment. After 48 h of incubation, the medium was removed and viral infection was quantified using a β-galactosidase (CPRG) assay (Roche). Twenty thousand TZM-bl cells/well were seeded in 96-well plates in complete DMEM supplemented with 30 μg/mL DEAE-dextran (Sigma-Aldrich). Three hundred times the 50% tissue culture infective dose (TCID50)/mL of each strain was pretreated for 1 h at 37°C with six serial dilutions ([…] to 3.2 nM) of each compound and then added to the cells, as previously described. Vehicle (0.1% dimethyl sulfoxide [DMSO])-treated cells served as a negative control. […] After 2 days, viral infection was quantified using a CPRG assay (Roche). The inhibitory curves were fitted by nonlinear regression, allowing for the calculation of the 50% inhibitory concentration (IC50) using the Prism software. To evaluate the cell toxicity of the compounds, the metabolic XTT [2,3-bis-(2-methoxy-4-nitro-5-sulfophenyl)-2H-tetrazolium-5-carboxanilide] test (Sigma-Aldrich) was performed according to the manufacturer’s instructions.

The test system of data set [4] is HIV-1 NL4.3 (CXCR4-tropic strain). Briefly: Antiviral activity on TZM-bl cells infected with HIV-1 NL4.3 (CPRG assay). The format is cell-based. The procedure: After 48 h of incubation, the medium was removed and viral infection was quantified using a β-galactosidase (CPRG) assay (Roche). Twenty thousand TZM-bl cells/well were seeded in 96-well plates in complete DMEM supplemented with 30 μg/mL DEAE-dextran (Sigma-Aldrich). […] Vehicle (0.1% dimethyl sulfoxide [DMSO])-treated cells served as a negative control. […] After 2 days, viral infection was quantified using a CPRG assay (Roche). […] To evaluate the cell toxicity of the compounds, the metabolic XTT [2,3-bis-(2-methoxy-4-nitro-5-sulfophenyl)-2H-tetrazolium-5-carboxanilide] test (Sigma-Aldrich) was performed according to the manufacturer’s instructions.

A short description of data set [5]: Cytotoxicity on TZM-bl cells (XTT test). The format is cell-based. As to conditions: human, read-out: Citotoxicity (TZM-bl cells) CC50. The procedure:
as §4

The next data set has as its system HIV-1 NL 4.3 WT. Briefly: Antiviral activity on human CD4+ T lymphocytes, NL4.3 WT. The format is cell-based. As to conditions: Human immunodeficiency virus 1, read-out: NL 4.3 WT EC50. The procedure: (§5) The antiviral activity and cytotoxicity of compounds 2, 9e and 9f was tested also on freshly purified human CD4^+ T lymphocytes obtained from healthy blood donors (informed consent available) as described previously on HIV laboratory strain NL4.3 and AD8 [33, 34].

The subject of the next data set is HIV-1 AD8 WT. Briefly: Antiviral activity on human CD4+ T lymphocytes, AD8 WT. The format is cell-based. Conditions: Human immunodeficiency virus 1, read-out: AD8 WT EC50. The procedure:
as §5

Data set [6] deals with recombinant HIV-1 integrase Q148H, G140S. Briefly: Antiviral activity on human CD4+ T lymphocytes, integrase mutant Q148H, G140S. The format is cell-based. Conditions: Human immunodeficiency virus 1, read-out: Q148H, G140S EC50.
Data set [7] concerns recombinant HIV-1 integrase Y143R. Briefly: Antiviral activity on human CD4+ T lymphocytes, integrase mutant Y143R. The format is cell-based. As to conditions: Human immunodeficiency virus 1, read-out: Y143R EC50.
A further data set has as its system NL4.3 HIV strain. Put plainly: Antiviral activity in microbicide gel formulation, transwell experiment, TZM-bl cells. The format is cell-based, HIV-1. As to conditions: Human immunodeficiency virus 1, gel at 50%. The procedure: All the semi-solid formulations were prepared adding at the pre-gel solution reported above hydroxyethyl cellulose (HEC) (1.8% w/v). In all samples, 0.2% v/v propionic acid was added to aqueous solution in order to preserve form bacteria and mold contamination. HEC was dispersed in the pre-gel solution at 25°C under magnetic stirring, overnight.
Antiviral activity of compound 2 on NL4.3 HIV strain was evaluated also in a gel formulation. To reproduce more physiological conditions, TZM-bl cells were seeded into transwells and the gel was applied onto the cell monolayer at 50% fixed concentration with serial drug dilutions as previously described. Briefly, 4x10^4 TZM-bl cells were plated into each transwell apical chamber of a 24-well plate (pore size 3μm and diameter 6,5 mm, Corning) containing medium in the bottom plate and cultured overnight. For efficacy testing, 60 TCID50 of virus was added to each apical well in the presence of 100 μL of compound 2 gel, tenofovir gel or blank gel at the final drug concentrations of 25μM, 10 μM and 5 μM. Inhibition of infection was determined as previously based on deviations from blank gel.

Data set [8] has as its system HIV-1 AD8. Put plainly: Inhibition of antiviral activity by fetal bovine serum (TZM-bl, AD8). The format is cell-based. Conditions: FBS 0% to 10%. The procedure: To evaluate the binding of compounds to plasma proteins also in a cell based assay, the infection with the HIV laboratory strain AD8 was performed in absence or in presence of different concentrations of Fetal Bovine Serum (FBS): 2%, 5% and 10%. The representative compound 2 was pre-incubated at different concentrations ranging from 10 μM to 3.2 nM with 300 TCID50 /mL of AD8 in DMEM supplemented with 50 μg/mL penicillin, 50 μg/mL streptomycin, 30 μg/mL DEAE-dextran and FBS at the concentration described above. Maraviroc was used as control. After an hour the mixture was added to 40.000 TZM-bl cells/well plated in a 96-well plate and after two days the infection was quantified using a CPRG assay (Roche) as previously described.

Data set [9] has as its system HIV-1 AD8. Briefly: Inhibition of antiviral activity by purified bovine serum albumin (TZM-bl, AD8). The format is cell-based. The procedure:
To confirm the binding of compound 2 to serum albumin, infection was performed in presence of different concentrations of purified bovine serum albumin (BSA, Sigma Aldrich) starting from the concentration that is usually present in FBS serum (35 mg/mL, 1X) and increasing to a five-fold concentration (175 mg/mL) up to a ten-fold concentration (350 mg/mL). […] After one hour, the mixture was added to 40.000 TZM-bl cells/well plated in DMEM supplemented with 50 μg/mL penicillin, 50 μg/mL streptomycin, 30 μg/mL DEAE-dextran and 10% FBS in a 96-well plate. After two days the infection was evaluated through a CPRG assay.

Take `Nc1nc2c(ncn2COCCO)c(=O)[nH]1` [ACV, Acyclovir, reference compound]: the EC50 (usually the midpoint of the concentration-response curve) with HSV-2 (Human alphaherpesvirus 2, plaque reduction, compound pre-incubated with virus 1 h at 37°C, read-out: HSV-2 EC50) amounted to 0.622 ± 0.0211 µM; in the data set with HSV-1, 0.168 ± 0.0413 µM; in [2], 31.9 ± 1.16 µM. Besides, in the data set with HSV-2, the “SI (CC50/EC50), HSV-2” value was 1177. The values for the CC50 in data set [1] (Citotoxicity (Vero cells) CC50), in [1] (Vero cell CC50 (HSV-1)) and in data set [1] (Vero cell CC50 (HSV-2 acyclovir resistant rows)) were 732 ± 46.2 µM, 698 ± 72.5 µM and 732 ± 46.2 µM, respectively.
Take `CC(=O)Nc1ccc(O)cc1` [Paracetamol]: the Kd (commonly the constant that tells how readily two partners part at equilibrium) in the data set with HSA was 1280 ± 690 µM.
`Cc1nnc(C(=O)NC(C)(C)c2nc(C(=O)NCc3ccc(F)cc3)c(O)c(=O)n2C)o1` [RAL, raltegravir, reference compound]: the EC50 in data set [3] (Human immunodeficiency virus 1, TZM-bl, read-out: AD8 EC50) amounted to 0.0065 ± 0.001 µM; in [3] (Human immunodeficiency virus 1, TZM-bl, read-out: AD8 EC50 a), 0.0135 ± 0.002 µM; in data set [4] (Human immunodeficiency virus 1, NL43, TZM-bl, read-out: NL4-3 EC50) it was 0.021 ± 0.003 µM; in the data set with HIV-1 NL 4.3 WT it was 0.003 ± 0.002 µM; in the data set with HIV-1 AD8 WT, 0.002 ± 0.003 µM; in [6], 0.8 ± 0.012 µM. The EC50 in data set [7] was 0.46 ± 0.01 µM. The “alteration of antiviral activity when pre-incubated with serum” value in data set [3] (TZM-bl cells) was “did not show any alteration of antiviral activity”. In addition, the half-maximal cytotoxic concentration (CC50) (in general, the concentration at which the toxic effect on the cells reaches its halfway point) in [5] was above 20 µM.
Regarding `C[C@H](Cn1cnc2c(N)ncnc21)OCP(=O)(O)O` [tenofovir, reference compound], the EC50 in the data set with NL4.3 HIV strain stood at 4.5 µM.
For maraviroc [reference compound], the “alteration of antiviral activity when pre-incubated with serum” value in data set [3] (TZM-bl cells) was “did not show any alteration of antiviral activity”. For the same compound, the EC50 is 0.0255 ± 0.003 µM in [3] (TZM-bl cells, pre-incubation in complete medium containing fetal bovine serum (FBS), read-out: AD8 EC50 a); 0.0367 ± 0.007 µM in data set [3] (TZM-bl cells, pre-incubation with virus without serum, read-out: AD8 EC50); above 20 µM in [4] (TZM-bl cells, pre-incubation in complete medium containing fetal bovine serum (FBS), read-out: NL4-3 EC50 a); above 20 µM in data set [4] (TZM-bl cells, pre-incubation with virus without serum, read-out: NL4-3 EC50). Further, in the data set with HIV-1 AD8 [8], the “effect of FBS concentration on antiviral activity” value is listed as “did not change”. In the data set with HIV-1 AD8 [9], the “influence of BSA on antiviral activity, any concentration of BSA” value was “not influenced”.
